Assay results published in publication PMC3091528 (Glycobiology, 2011).

Experiments:
human LSECtin CRD = target: T1, human LSECtin CRD (Homo sapiens, UniProt Q6UXB4); assay type: binding
T1 sequence (Q6UXB4 165-293 limits assumed): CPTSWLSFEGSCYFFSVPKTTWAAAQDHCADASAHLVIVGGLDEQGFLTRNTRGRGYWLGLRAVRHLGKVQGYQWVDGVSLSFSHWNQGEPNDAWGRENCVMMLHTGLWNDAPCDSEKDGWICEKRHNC

mouse LSECtin CRD = target: T2, mouse LSECtin CRD (Mus musculus, UniProt Q8BNX1); assay type: binding
T2 sequence (Q8BNX1 161-294): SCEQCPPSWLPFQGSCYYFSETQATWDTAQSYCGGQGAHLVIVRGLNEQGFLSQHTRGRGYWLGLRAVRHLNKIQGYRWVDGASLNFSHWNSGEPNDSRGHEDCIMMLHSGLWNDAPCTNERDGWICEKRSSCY

CC(=O)N[C@H]1[C@H](O[C@@H]2C(O)O[C@H](CO)[C@@H](O)[C@@H]2O)O[C@H](CO)[C@@H](O)[C@@H]1O (some centres unmarked) [GlcNAcβ1-2Man]
Ki (human LSECtin CRD): 1.1 ± 0.5 µM
Ki (mouse LSECtin CRD): 10.2 ± 0.8 µM
